Measured values taken from patent EP1148124A1 (priority 1999, dated 2000).
Read-outs that look alike come from different tables or passages of the source.

Experiment: Reporter assay (No. 1), cell number reporter gene (sea pansy luciferase, pRL-TK), clone of Example 2
Type: cell-based
Details: mouse, hepa1c1c7 cells, about 40 hours, ratio to 0 pg/ml, read-out: Amount of luminescence by sea pansy luciferase (from pRL-TK) Ratio
Method: For the measured values of the amount of expression of the cell number reporter gene, a ratio is determined of the measured value in the test substance added group to the measured value in the only solvent added group (control group). When the ratio is, for example, in the range of 0.8 to 1.2, the measured value of the amount of expression of the ligand responsive reporter gene in the test substance added group is selected for evaluating the agonist or antagonist activity of the test substance against the ability of a ligand responsive transcriptional regulatory factor to promote transcription. When the ratio takes a small value such as smaller than 0.8, for example, it is possible that the test substance has cytotoxicity. In contrast, when the ratio takes a large value such as greater than 1.2, for example, it is possible that the test substance has activity against the transcriptional regulatory system of a gene without mediation of a ligand responsive transcriptional regulatory factor. However, the range of this ratio suitable for selecting the measured value of the amount of expression of the […] reporter gene may vary depending on certain properties of the present cells used and the conditions of measurement, and it is not limited to the above examples of numerical values.
Separately, plasmid pGV-Ya-XREx5 (ligand responsive reporter gene containing plasmid) constructed in Example 1 was digested with Bam HI. Further, plasmid pRL-TK (cell number reporter gene containing plasmid; marketed by Toyo Ink) containing the sea pansy luciferase gene used as the cell number reporter gene was digested with Bam HI, and neomycin resistance (aminoglycoside phosphotransferase) gene containing plasmid pRc/RSV (available from INVITROGEN) was digested with Hind III. These three digested plasmids, i.e., Bam HI digested pGV-Ya-XREx5 (2.8 µg), Bam HI digested pRL-TK (2.8 µg), and Hind III digested pRc/RSV (0.5 µg), were then mixed with 300 µl of αMEM medium (mixture A), while 36 µl of lipofectin (available from GIBCO-BRL) was mixed with 300 µl of αMEM medium (mixture B). After being left at room temperature for 30 minutes, mixtures A and B were combined together and left at room temperature for 10 minutes. The Hepa1clc7 cells cultured overnight as described above were then washed once with αMEM medium, to which there was added a solution prepared by adding and mixing additional 5.4 ml of αMEM medium to the above mixture (A + B). Culturing of the resulting mixture was carried out for 5 hours. The medium was then replaced with 10% serum containing αMEM medium, followed by further culturing overnight. Subsequently, the cells were scratched from the petri dishes and collected, and the collected cells were suspended in 10% serum containing αMEM medium to have the total volume of 100 ml. The resulting cell suspension was plated on 96 well plates at a ratio of 100 µl/well. After these plates were cultured overnight, a medium prepared by dissolving geneticin (hereinafter referred to as "G418") in 10% serum containing αMEM medium to have a concentration of 1.6 mg/ml was added at a ratio of 100 µl/well (G418 final concentration 800 µg/ml). Culturing was further continued for 3 weeks, during which the medium was replaced with 10% serum containing αMEM medium containing 800 µg/ml G418 at a rate of once per week. The volume of the medium was set at 200 µl/well. After said 3 weeks, cells were scratched from the wells in which colony formation had been observed, and collected (for 192 wells), and the collected cells were divided into three and independently plated on different plates, followed by continuous culturing for 4 days. To the first plate, only DMSO was added (solvent control), and to the second plate, 3-methylcholanthrene (hereinafter referred to as "3-MC") dissolved in DMSO was added so that the final concentration of 3-MC in the second plate came to 10 µM per well. The first and second plates were then cultured overnight. […]

Clc1cc2c(cc1Cl)Oc1cc(Cl)c(Cl)cc1O2 [TCDD, 2,3,7,8-tetrachlorodibenzo-p-dioxin]
viability at 40 h (final conc. 0.02 pg/ml): 100%
viability at 40 h (final conc. 0.2 pg/ml): 90%
viability at 40 h (final conc. 2 pg/ml): 90%
viability at 40 h (final conc. 20 pg/ml): 80%
viability at 40 h (final conc. 200 pg/ml): 70%
viability at 40 h (final conc. 2000 pg/ml): 60%
viability at 40 h (final conc. 20000 pg/ml): 60%
